Reference: patent US5124315A, “Liquid pharmaceutical composition for nasal administration containing a polypeptide as active ingredient” (Phideatech S.R.L., priority 1991, dated 1992)

Conditions: liquid nasal compositions, common storage conditions
From the text: The present inventors have accordingly conducted extensive researches for finding a suitable stabilizing agent.

SMILES: N.N.O=C(O)C(O)C(O)C(=O)O (stereo not shown) [ammonium tartrate]
- stabilizing activity on liquid compositions containing polypeptides: satisfactory stabilizing agent
